# Values joined by “and” are separate entries in the source; they are usually repeats but may differ in a detail not shown here. Equal entries are not always repeated.
# Key:
# [1] = system: non-invasive fungus-induced rhinosinusitis patients; experiment: Itraconazole nasal irrigations in rhinosinusitis patients; format: in vivo, human; set-up: symptom score before itraconazole irrigations / symptom score after itraconazole irrigations / endoscopic score, right side, before / endoscopic score, right side, after / endoscopic score, left side, before / endoscopic score, left side, after: scale not given here
# Method: Three non-invasive fungus-induced rhinosinusitis patients (person, person, and person) were instructed to perform nasal irrigation with an itraconazole solution. The itraconazole solution contained about 100 mg of itraconazole per L of solution (10% PEG-400 in sterile water) and was prepared as described herein. […] Each patient reported marked improvement in symptoms within two weeks of starting the itraconazole irrigations (symptom scores: −1 to +2 and −1 to +1).
# After treatment with itraconazole, that patient reported symptom improvement (symptom score: from −1 to 0).
# [2] = system: non-invasive fungus-induced rhinosinusitis patients; experiment: Amphotericin B nasal irrigation study, three month follow-up of 53 patients; format: in vivo, human
# Description: In addition to patient interviewing, CT scan analysis, visual examination, and fungal culture analysis, two types of evaluations were used to score the success of the treatment: an endoscopic evaluation and a patient symptom evaluation.
# [3] = system: non-invasive fungus-induced rhinosinusitis patients; experiment: Patient data collected during a one week period (amphotericin B nasal irrigations); format: in vivo, human; set-up: Endoscopy Score B / Endoscopy Score A / Symptom Score B: scale not given here
# Description: Only previously seen patients that were instructed to use the antifungal amphotericin B nasal irrigations were entered into this study.
# During a one week period, twenty patients returned to the physician's office (Table II). The average age of the returning patients was 47 years (range 16-74 years). The patients were using the amphotericin B irrigations for an average duration of about six months (range 1-16 months). […] In addition, some patients were using topical and systemic steroid therapy. Further, some patients were using an antibiotic nasal irrigation in addition to the antifungal irrigations. The antibacterial solution contained 80 mg gentamicin per L saline (Wilson's solution). Some patients mixed the antibacterial solution with the antifungal solution and then performed the nasal irrigations while others used each solution separately in a sequential manner. Some patients also had other diseases including asthma (15 of the 20 patients) and colitis (2 of the 20 patients).
# [4] = system: non-invasive fungus-induced rhinosinusitis patients; experiment: Amphotericin B irrigations in patients without previous nasal surgery; format: in vivo, human
# Description: A person was diagnosed with non-invasive fungus-induced rhinosinusitis and instructed to perform amphotericin B irrigations twice a day.
# A person was diagnosed with non-invasive fungus-induced rhinosinusitis and instructed to perform amphotericin B irrigations twice a day, which was later increased to four times a day.
# A person was diagnosed with non-invasive fungus-induced rhinosinusitis and instructed to perform amphotericin B irrigations twice a day. This patient had been given intramuscular steroid shots every 3 to 8 months with the last shot being administered about seven months prior to starting the amphotericin B irrigations.
# [5] = system: non-invasive fungus-induced rhinosinusitis patient; experiment: Eosinophil count in mucosal biopsies after antifungal treatment; format: in vivo, human; settings: after nine months of irrigations twice a day
# Description: A person was diagnosed with non-invasive fungus-induced rhinosinusitis and instructed to perform amphotericin B irrigations twice a day. After nine months of amphotericin B irrigations, the patient underwent sinus surgery for further improvement. During the surgery mucosal biopsies were collected and the eosinophil count compared to the those obtained from biopsies collected from the patient during a surgery prior to the antifungal treatment.
# chronic asthma patients = experiment: Chronic asthma symptoms in patients of the amphotericin B irrigation study
# Method: One hundred and thirty-two consecutive rhinosinusitis patients were entered into a study to evaluate the use of an antifungal agent to treat non-invasive fungus-induced rhinosinusitis. […] The 125 non-invasive fungus-induced rhinosinusitis patients were started on an antifungal treatment of about 20 mL of an amphotericin B solution per nostril, two to four times daily for at least three months. The concentration of the amphotericin B solution was about 100 mg per liter of saline or water. A 20 mL bulb was used by the patient to mucoadminister the amphotericin B solution into the patient's nasal-paranasal anatomy. Data were compiled for 53 of the patients who had returned for their three month follow-up analysis.
# rhinosinusitis patient = experiment: Single patient, one-sided then two-sided amphotericin B irrigation with surgery, RAST to Alternaria
# Method: Only the left nasal-paranasal side, however, received surgery as well as intra-operative and post-operative treatment with about 20 mL of an amphotericin B solution (100 mg/L) two to four times daily.
# [6] = sixteen days after starting itraconazole irrigations, one patient
# [7] = after treatment, three month follow-up
# [8] = after antifungal treatment, nasal irrigations 1-16 months, 1-2x day, one line per patient, r26 and r28 switched to itraconazole for the last month, r13 stopped 8 months earlier
# [9] = before antifungal treatment (baseline), one line per patient
smiles,measurement,setting,value
CCC(C)n1ncn(-c2ccc(N3CCN(c4ccc(OCC5COC(Cn6cncn6)(c6ccc(Cl)cc6Cl)O5)cc4)CC3)cc2)c1=O (centres unmarked) [itraconazole],symptom score after itraconazole irrigations,"[1]; about 100 mg per L (10% PEG-400 in sterile water), within two weeks, patients not responding to amphotericin B, one line per patient",+2 and +1 and 0
same,symptom score before itraconazole irrigations,"[1]; baseline, one line per patient",−1
same,"endoscopic score, left side, before","[1]; baseline, one patient",1
same,"endoscopic score, right side, before","[1]; baseline, one patient",1
same,local reaction to nasal irrigations,"[1]; human, in vivo",did not have any adverse local reaction
same,"endoscopic score, left side, after",[1]; [6],1
same,"endoscopic score, right side, after",[1]; [6],0
C[C@@H]1[C@H](O)[C@@H](C)/C=C/C=C/C=C/C=C/C=C/C=C/C=C/[C@H](O[C@@H]2O[C@H](C)[C@@H](O)[C@H](N)[C@@H]2O)C[C@@H]2O[C@](O)(C[C@@H](O)C[C@@H](O)[C@H](O)CC[C@@H](O)C[C@@H](O)CC(=O)O[C@H]1C)C[C@H](O)[C@H]2C(=O)O [amphotericin B],patients going from endoscopic evaluation stage 2 or 3 to stage 0,"[2]; after three months, about 20 mL of 100 mg/L solution per nostril, two to four times daily",33 of the 53
same,patients giving themselves symptom stage 0 (baseline/no change),[2]; [7],six of the 53
same,patients giving themselves symptom stage 1 (good/improved),[2]; [7],three of the 53
same,patients giving themselves symptom stage 2 (very good/free of symptoms),[2]; [7],44 of the 53
same,patients that did not respond to the treatment (of 53),[2]; endoscopic evaluation after three months,nine
same,non-responding patients whose mucus fungal organisms were resistant to the agent,[2]; five of the nine non-responders had mucus samples available,all five
same,CT scan finding after treatment,"[2]; one patient with bilateral rhinosinusitis, no recent surgery, no steroids, 20 mL of 100 mg/L per nostril two times daily, four months",complete disappearance of opacity and symptoms characteristic of rhinosinusitis
same,number of different fungal species in mucus after versus before treatment,"[2]; several patients, fungal organism culturing",remarkably reduced
same,Endoscopy Score A,[3]; [8],0 (10×) and 3 (5×) and 1 (2×)
same,Symptom Score A,[3]; [8],+1 (6×) and +2 (6×) and 0 (6×) and −2 and 1
same,Endoscopy Score B,[3]; [9],1 (3×) and 2 (5×) and 3 (10×) and 0
same,Symptom Score B,[3]; [9],−1 (14×) and −2 (6×)
same,"endoscopic evaluation, overall outcome of the twenty patients","[3]; nasal irrigations, average about six months",most patients had an observable improvement
same,symptom score before treatment,"[4]; baseline, no previous nasal surgery, one line per patient",−1
same,endoscopic score after treatment,"[4]; irrigations twice a day (b227 later four times a day) for fourteen, sixteen, four months",0
same,"eosinophil count in mucosal biopsies, all sinuses except the frontal",[5],< 5%
same,eosinophil count in the frontal sinus biopsy,"[5]; frontal sinus obstructed, presumably not reached",10%
same,local reaction to nasal irrigations,[1]; one patient (third patient),burning sensation
same,patients no longer exhibiting asthma symptoms who stopped taking their asthma medication,chronic asthma patients; after starting treatment,26 of the 28
same,asthmatic patients declaring improvement or complete elimination of asthma symptoms,chronic asthma patients; after three months of nasal irrigation treatment of Example 2,28 of the 37
same,patients with improved pulmonary function test after versus before treatment,chronic asthma patients; four of the 28 improved patients tested,all four
same,patients taking steroids after starting treatment,chronic asthma patients; of twenty-three patients on systemic steroids for asthma before,none
same,RAST reading to Alternaria,rhinosinusitis patient; after surgery on the right side and irrigation of both sides for about seven weeks,4.47 KU/L
same,state of the treated left paranasal sinuses,"rhinosinusitis patient; at every post-operative visit, surgery plus irrigation of the left side",clear of disease
same,RAST reading to Alternaria,rhinosinusitis patient; before treatment (baseline),6.23 KU/L
same,RAST reading to Alternaria,"rhinosinusitis patient; only left side operated and irrigated (about 20 mL, 100 mg/L, two to four times daily), eight to ten weeks after symptoms disappeared on the left",7.16 KU/L
same,patient state by CT scan,"rhinosinusitis patient; six months after the last surgery, both sides irrigated",symptom-free and disease-free
same,RAST reading to Alternaria,"rhinosinusitis patient; six months post-operation, only left side treated, rhinosinusitis diagnosed on the right",10.0 KU/L
